Results on 15 compounds are retold here after ChEMBL document CHEMBL3632604, “Anti-inflammatory Inositol Derivatives from the Whole Plant of Inula cappa” (J Nat Prod, 2015).

For assay [1], the system named is RAW264.7. Kind of assay: Antiinflammatory activity in mouse RAW264.7 cells assessed as inhibition of LPS-induced nitric oxide production at 10 uM preincubated for 30 mins followed by LPS stimulation measured after 24 hrs by Griess assay relative to control. The assay is classed as functional.
The test system of assay [2] is RAW264.7. Kind of assay: Antiinflammatory activity in mouse RAW264.7 cells assessed as inhibition of LPS-induced nitric oxide production preincubated for 30 mins followed by LPS stimulation measured after 24 hrs by Griess assay. Type of assay: functional, cell-based.

Molecules are shown by their SMILES. Calls of active or inactive are those of the source. The rule behind the calls is not given here.

Turning to `C/C=C(/C)C(=O)O[C@@H]1[C@@H](O)[C@@H](OC(=O)/C(C)=C\C)[C@@H](OC(=O)/C(C)=C\C)[C@H](O)[C@H]1OC(=O)/C(C)=C\C`, the inhibition at 10 µM with RAW264.7 [1] worked out at 42.1%. Besides, the IC50 in the assay with RAW264.7 [2] is 9.8 µM. In the same order, the values of `Cc1ccc(-c2cc(C(F)(F)F)nn2-c2ccc(S(N)(=O)=O)cc2)cc1` [CELECOXIB] are 59.2% and 1.6 µM.

Regarding `C/C=C(/C)C(=O)O[C@H]1[C@H](O)[C@H](O)[C@H](OC(=O)/C=C(\C)CC)[C@@H](O)[C@@H]1OC(=O)/C(C)=C\C`, the inhibition entry in the assay with RAW264.7 [1] is “Active”. As to `C/C=C(/C)C(=O)O[C@H]1[C@H](OC(=O)/C(C)=C\C)[C@H](OC(=O)/C(C)=C\C)[C@@H](O)[C@@H](OC(=O)/C(C)=C\C)[C@@H]1O`, the inhibition at 10 µM in the assay on RAW264.7 [1] came out at 59.6%. Moreover, the IC50 in the assay on RAW264.7 [2] came out at 9.9 µM.

On to `C/C=C(/C)C(=O)O[C@@H]1[C@@H](O)[C@H](OC(=O)/C(C)=C\C)[C@@H](OC(=O)/C(C)=C\C)[C@@H](OC(=O)/C(C)=C\C)[C@H]1O`, for which the inhibition at 10 µM in the assay on RAW264.7 [1] is 47.9%. Besides, the concentration for half-maximal inhibition (IC50) in the assay on RAW264.7 [2] was determined as 19 µM. For `C/C=C(/C)C(=O)O[C@@H]1[C@H](OC(C)=O)[C@@H](OC(C)=O)[C@@H](OC(=O)/C(C)=C\C)[C@H](O)[C@H]1OC(=O)/C(C)=C\C`, the inhibition entry in the assay with RAW264.7 [1] is “Active”. The concentration for half-maximal inhibition (IC50) with RAW264.7 [2] came out at 7.1 µM. As for `C/C=C(/C)C(=O)O[C@@H]1[C@@H](O)[C@H](OC(=O)/C(C)=C\C)[C@@H](OC(=O)/C(C)=C\C)[C@H](O)[C@@H]1O`, the inhibition at 10 µM in the assay on RAW264.7 [1] is 37.4%. The IC50 in the assay with RAW264.7 [2] was determined as 23.4 µM. Regarding `C/C=C(/C)C(=O)O[C@@H]1[C@@H](O)[C@H](O)[C@@H](OC(=O)/C(C)=C\C)[C@@H](OC(=O)/C(C)=C\C)[C@H]1O`, the inhibition result in the assay on RAW264.7 [1] was “Active”. Consider `C/C=C(/C)C(=O)O[C@@H]1[C@@H](O)[C@H](OC(=O)/C(C)=C\C)[C@@H](OC(=O)/C(C)=C\C)[C@H](O)[C@@H]1OC(=O)C(C)C`, for which, in the assay on RAW264.7 [1], the inhibition at 10 µM worked out at 47.2%. Besides, the IC50 in the assay on RAW264.7 [2] amounted to 7.6 µM.

Regarding `C/C=C(/C)C(=O)O[C@@H]1[C@H](O)[C@@H](OC(C)=O)[C@@H](OC(=O)/C(C)=C\C)[C@H](OC(=O)/C(C)=C\C)[C@H]1O`, in the assay with RAW264.7 [1], the inhibition at 10 µM stood at 43.4%. In the assay on RAW264.7 [2], the IC50 amounted to 11.9 µM. Turning to `C/C=C(/C)C(=O)O[C@H]1[C@H](O)[C@@H](O)[C@H](OC(=O)/C(C)=C\C)[C@H](OC(=O)/C(C)=C\C)[C@H]1O`, the inhibition entry with RAW264.7 [1] was “Active”. Moreover, the IC50 in the assay on RAW264.7 [2] was 8.9 µM.

As for `C/C=C(/C)C(=O)O[C@@H]1[C@@H](O)[C@H](OC(=O)/C(C)=C\C)[C@H](OC(=O)/C(C)=C\C)[C@@H](O)[C@H]1OC(=O)/C(C)=C\C`, the inhibition at 10 µM in the assay with RAW264.7 [1] was found to be 39.7%. Moreover, the IC50 with RAW264.7 [2] was determined as 7 µM. With `C/C=C(/C)C(=O)O[C@H]1[C@@H](O)[C@@H](OC(C)=O)[C@H](OC(=O)/C(C)=C\C)[C@@H](OC(=O)/C(C)=C\C)[C@@H]1O`, the inhibition at 10 µM in the assay with RAW264.7 [1] amounted to 38.3%.

For the compound `C/C=C(/C)C(=O)O[C@@H]1[C@@H](O)[C@@H](OC(=O)/C=C(\C)CC)[C@H](O)[C@@H](O)[C@@H]1OC(=O)/C(C)=C\C`, the inhibition entry in the assay with RAW264.7 [1] was “Active”. Further, the IC50 in the assay on RAW264.7 [2] came to 8.4 µM.

In the case of `C/C=C(/C)C(=O)O[C@@H]1[C@@H](O)[C@H](OC(=O)/C(C)=C\C)[C@@H](OC(=O)/C(C)=C\C)[C@H](O)[C@@H]1OC(C)=O`, the inhibition result in the assay with RAW264.7 [1] is “Active”. The IC50 with RAW264.7 [2] amounted to 9.6 µM.
